14 molecules from patent US8802678B2, “Carbonylated (aza) cyclohexanes as dopamine D3 receptor ligands” (Bioprojet, priority 2006, dated 2014) can be followed below.

Take `CCOCC(=O)N[C@H]1CC[C@H](CCN2CCN(c3ccc(C)cc3)CC2)CC1` [Example 474, 2-Ethoxy-N-{4-[2-(4-p-tolylpiperazin-1-yl)ethyl]cyclohexyl}acetamide]: the melting point worked out at 130 °C.
`Cc1ccc(N2CCN(CC[C@H]3CC[C@H](NC(=O)C4=CCCC4)CC3)CC2)cc1` [Example 475, Cyclopent-1-enecarboxylic acid {4-[2-(4-p-tolylpiperazin-1-yl)ethyl]cyclohexyl} amide]: the melting point is 227 °C.
`O=C(N[C@H]1CC[C@H](CCN2CCN(c3cccc(C(F)(F)F)c3F)CC2)CC1)C1=COCCC1` [Example 476] came in with a melting point of 207 °C.
`CC(O)c1cccc(N2CCN(CC[C@H]3CC[C@H](NC(=O)CC(F)(F)F)CC3)CC2)c1` (some centres unmarked) [Example 477, 3,3,3-trifluoro-N-[4-(2-{4-[3-(1-hydroxyethyl)phenyl]piperazin-1-yl}ethyl)cyclohexyl]propanamide] had a melting point of 190 °C.
Molecule `CCOCC(=O)N[C@H]1CC[C@H](CCN2CCN(c3cccc(C(F)(F)F)c3F)CC2)CC1` [Example 478, 2-Ethoxy-N-(4-{2-[4-(2-fluoro-3-trifluoromethylphenyl)piperazin-1-yl]ethyl}cyclohexyl)acetamide] had a melting point of 125 °C.
The result for `N#CCCCC(=O)N[C@H]1CC[C@H](CCN2CCN(c3ccc(Cl)cc3)CC2)CC1` [Example 479, N-(4-{2-[4-(4-Chlorophenyl)piperazin-1-yl]ethyl}cyclohexyl)-4-cyanobutanamide] reads 190 °C; that for `O=C(CC(F)(F)F)N[C@H]1CC[C@H](CCN2CCN(c3ccc(Cl)cc3)CC2)CC1` [Example 480, N-(4-{2-[4-(4-Chlorophenyl)-piperazin-1-yl]ethyl}cyclohexyl)-3,3,3-trifluoropropanamide], 234 °C.
`CC(=O)CN1CCC(CCN2CCN(c3ccc(C)cc3F)CC2)CC1` [Example 482, 1-(4-{2-[4-(2-Fluoro-4-methylphenyl)piperazin-1-yl]ethyl}piperidin-1-yl)propan-2-one] returned a melting point of 65 °C.
As for `COc1ccc(C)cc1N1CCN(CC[C@H]2CC[C@H](NC(=O)CCCC#N)CC2)CC1` [Example 483, 4-Cyano-N-(4-{2-[4-(2-methoxy-5-methylphenyl)piperazin-1-yl]ethyl}cyclohexyl)butanamide], the melting point was 164 °C.
In the case of `Cc1ccc(N2CCN(CC[C@H]3CC[C@H](NC(=O)CC#N)CC3)CC2)c(F)c1` [Example 484, 2-Cyano-N-(4-{2-[4-(2-fluoro-4-methylphenyl)piperazin-1-yl]ethyl}cyclohexyl)acetamide], the melting point turned out to be 197 °C.
`Cc1ccc(N2CCN(CC[C@H]3CC[C@H](NC(=O)CCCC#N)CC3)CC2)c(F)c1` [Example 485, 4-Cyano-N-(4-{2-[4-(2-fluoro-4-methylphenyl)piperazin-1-yl]ethyl}cyclohexyl)butanamide] returned a melting point of 173 °C.
Next, `O=C(N[C@H]1CC[C@H](CCN2CCN(c3ccc(Cl)c(Cl)c3)CC2)CC1)C1=CCCC1` [Example 486, Cyclopent-1-enecarboxylic acid (4-{2-[4-(3,4-dichlorophenyl)piperazin-1-yl]ethyl}cyclohexyl) amide]: 202 °C.
On to `CCOCC(=O)N[C@H]1CC[C@H](CCN2CCN(c3ccc(Cl)c(Cl)c3)CC2)CC1` [Example 487, N-(4-{2-[4-(3,4-Dichlorophenyl)piperazin-1-yl]ethyl}cyclohexyl)-2-ethoxyacetamide], for which the melting point amounted to 112 °C.
As to `O=C(N[C@H]1CC[C@H](CCN2CCN(c3ccc(Cl)cc3)CC2)CC1)C1=CCCC1` [Example 488, Cyclopent-1-enecarboxylic acid (4-{2-[4-(4-chlorophenyl)-piperazin-1-yl]ethyl}cyclohexyl) amide], the melting point stood at 237 °C.

The melting point is the temperature of the solid-liquid transition.
